In PubChem BioAssay AID248 (DTP/NCI, 2004):
Toxic doses and inconclusive results are not listed. No stated cut-off is given here; in the data, active means T/C of 150% or more; inactive means T/C below 125%.

Tested on: L1210 leukemia ip in BDF1 mice, survival T/C
Assay: NCI In Vivo Anticancer Drug Screen. Data for tumor model L1210 Leukemia (intraperitoneal) in B6D2F1 (BDF1) mice
Settings: endpoint: mean survival time, higher = longer survival
Procedure, shortened: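 Transplanted-tumor mice were given test agent; controls received vehicle only. Survival readings from the two groups were divided (treated over control).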

[1] = dose: 100.0 mg/kg/injection, schedule: Q01DX001 (ip), vehicle: carboxymethylcellulose (CMC)
[2] = dose: 100.0 mg/kg/injection, schedule: Q04DX003 (ip), vehicle: saline with Tween-80
[3] = dose: 200.0 mg/kg/injection, schedule: Q04DX003 (ip), vehicle: saline with Tween-80
[4] = dose: 400.0 mg/kg/injection, schedule: Q04DX003 (ip), vehicle: saline with Tween-80
[5] = dose: 100.0 mg/kg/injection, schedule: Q01DX009 (ip), vehicle: Klucel (hydroxypropylcellulose) (HPC)
[6] = dose: 100.0 mg/kg/injection, schedule: Q04DX003 (ip), vehicle: Klucel (hydroxypropylcellulose) (HPC)
[7] = dose: 200.0 mg/kg/injection, schedule: Q04DX003 (ip), vehicle: Klucel (hydroxypropylcellulose) (HPC)
[8] = dose: 400.0 mg/kg/injection, schedule: Q04DX003 (ip), vehicle: Klucel (hydroxypropylcellulose) (HPC)
[9] = dose: 200.0 mg/kg/injection, schedule: Q01DX009 (ip), vehicle: Klucel (hydroxypropylcellulose) (HPC)
[10] = dose: 400.0 mg/kg/injection, schedule: Q01DX009 (ip), vehicle: Klucel (hydroxypropylcellulose) (HPC)
[11] = dose: 100.0 mg/kg/injection, schedule: Q01DX009 (ip), vehicle: saline with Tween-80
[12] = dose: 100.0 mg/kg/injection, schedule: Q04DX002 (ip), vehicle: Klucel (hydroxypropylcellulose) (HPC)
[13] = dose: 200.0 mg/kg/injection, schedule: Q04DX002 (ip), vehicle: Klucel (hydroxypropylcellulose) (HPC)
[14] = dose: 400.0 mg/kg/injection, schedule: Q04DX002 (ip), vehicle: Klucel (hydroxypropylcellulose) (HPC)
[15] = dose: 25.0 mg/kg/injection, schedule: Q04DX003 (ip), vehicle: saline

Measured: T/C

CC1(C)OCC(C2OC3OC(C)(C)OC3C2OS(C)(=O)=O)O1 (stereo not drawn)
inactive: [1] 101 % of control | dose: 200.0 mg/kg/injection, schedule: Q01DX001 (ip), vehicle: carboxymethylcellulose (CMC) 103 % of control | dose: 400.0 mg/kg/injection, schedule: Q01DX001 (ip), vehicle: carboxymethylcellulose (CMC) 97 % of control

CC(=O)Nc1ccc(SC(=O)c2ccc(C(Cl)(Cl)Cl)cc2)cc1
inactive: [2] 101 % of control | [3] 98 % of control | [4] 93 % of control

O=C(Nc1cc(Cl)cc2c1-c1c(Cl)cc(Cl)cc1C2)C(Cl)Cl
inactive: dose: 50.0 mg/kg/injection, schedule: Q04DX003 (ip), vehicle: Klucel (hydroxypropylcellulose) (HPC) 100 % of control | [5] 97 % of control | [6] 92 % of control | [7] 94 % of control | [8] 100 % of control

Cc1ccc(S(=O)(=O)NCCCCC(N)C(=O)O)cc1 (stereo not drawn)
inactive: [5] 98 % of control | [6] 98 % of control | [9] 98 % of control | [7] 108 % of control | [10] 100 % of control | [8] 98 % of control

COc1ccc2nc3cc(Cl)ccc3c(NCCCSCCCl)c2n1
inactive: dose: 2.0 mg/kg/injection, schedule: Q01DX009 (ip), vehicle: saline 116 % of control | dose: 8.0 mg/kg/injection, schedule: Q01DX009 (ip), vehicle: saline 109 % of control

CCCCCCCCCC(=O)N/N=C/c1ccccc1O
inactive: [5] 93 % of control | [9] 101 % of control | [10] 105 % of control

O=[N+]([O-])c1ccc(N=Nc2c(Cl)cc(O)cc2Cl)cc1
inactive: dose: 25.0 mg/kg/injection, schedule: Q01DX009 (ip), vehicle: saline with Tween-80 96 % of control | dose: 50.0 mg/kg/injection, schedule: Q01DX009 (ip), vehicle: saline with Tween-80 89 % of control | [11] 89 % of control

CCOC(=O)CN(c1ccccc1-c1ccccc1)S(=O)(=O)c1ccc(C)cc1
inactive: dose: 50.0 mg/kg/injection, schedule: Q01DX001 (ip), vehicle: other 92 % of control | dose: 100.0 mg/kg/injection, schedule: Q01DX001 (ip), vehicle: other 89 % of control | dose: 200.0 mg/kg/injection, schedule: Q01DX001 (ip), vehicle: other 101 % of control | dose: 400.0 mg/kg/injection, schedule: Q01DX001 (ip), vehicle: other 101 % of control

CCC(O)CC(=O)O (stereo not drawn) (tested in a mixture with another compound)
inactive: dose: 25.0 mg/kg/injection, schedule: Q04DX002 (ip), vehicle: Klucel (hydroxypropylcellulose) (HPC) 104 % of control | dose: 50.0 mg/kg/injection, schedule: Q04DX002 (ip), vehicle: Klucel (hydroxypropylcellulose) (HPC) 101 % of control | [12] 101 % of control

CCC(/C=N/NC(N)=O)c1ccccc1OC (stereo not drawn)
inactive: dose: 100.0 mg/kg/injection, schedule: Q01DX001 (ip), vehicle: saline 96 % of control | dose: 200.0 mg/kg/injection, schedule: Q01DX001 (ip), vehicle: saline 104 % of control | dose: 400.0 mg/kg/injection, schedule: Q01DX001 (ip), vehicle: saline 109 % of control

NNS(=O)(=O)c1ccc([N+](=O)[O-])cc1
inactive: dose: 12.5 mg/kg/injection, schedule: Q01DX009 (ip), vehicle: Klucel (hydroxypropylcellulose) (HPC) 109 % of control | dose: 25.0 mg/kg/injection, schedule: Q01DX009 (ip), vehicle: Klucel (hydroxypropylcellulose) (HPC) 106 % of control | dose: 50.0 mg/kg/injection, schedule: Q01DX009 (ip), vehicle: Klucel (hydroxypropylcellulose) (HPC) 101 % of control

CN1CCC23c4c5ccc(O)c4OC2C(=O)CCC3C1C5 (stereo not drawn)
inactive: dose: 75.0 mg/kg/injection, schedule: Q01DX001 (ip), vehicle: saline 95 % of control

CCOC(=O)c1c(C)nc(C)c(C(=O)OCC)c1C
inactive: dose: 100.0 mg/kg/injection, schedule: Q01DX001 (ip), vehicle: saline with Tween-80 101 % of control | dose: 200.0 mg/kg/injection, schedule: Q01DX001 (ip), vehicle: saline with Tween-80 99 % of control | dose: 400.0 mg/kg/injection, schedule: Q01DX001 (ip), vehicle: saline with Tween-80 95 % of control

Cn1cnc([N+](=O)[O-])c1C(N)=O
inactive: [12] 88 % of control | [13] 95 % of control | [14] 88 % of control

Nc1nc(N)c2cc(NCc3ccc(Br)cc3)ccc2n1
inactive: dose: 6.25 mg/kg/injection, schedule: Q01DX009 (ip), vehicle: saline with Tween-80 103 % of control | dose: 12.5 mg/kg/injection, schedule: Q01DX009 (ip), vehicle: saline with Tween-80 100 % of control | [15] 96 % of control

COc1ccc(OC(=O)Nc2ccc(OC)cc2Cl)cc1
inactive: [12] 96 % of control | [13] 107 % of control | [14] 100 % of control

NCC1=NCCN1
inactive: dose: 25.0 mg/kg/injection, schedule: Q04DX002 (ip), vehicle: saline 93 % of control | dose: 50.0 mg/kg/injection, schedule: Q04DX002 (ip), vehicle: saline 97 % of control | dose: 100.0 mg/kg/injection, schedule: Q04DX002 (ip), vehicle: saline 101 % of control | dose: 200.0 mg/kg/injection, schedule: Q04DX002 (ip), vehicle: saline 93 % of control

O=S(=O)(O)CCCCO
inactive: dose: 100.0 mg/kg/injection, schedule: Q01DX009 (ip), vehicle: saline 98 % of control | dose: 100.0 mg/kg/injection, schedule: Q04DX003 (ip), vehicle: saline 95 % of control | dose: 200.0 mg/kg/injection, schedule: Q01DX009 (ip), vehicle: saline 95 % of control | dose: 200.0 mg/kg/injection, schedule: Q04DX003 (ip), vehicle: saline 100 % of control | dose: 400.0 mg/kg/injection, schedule: Q01DX009 (ip), vehicle: saline 95 % of control | dose: 400.0 mg/kg/injection, schedule: Q04DX003 (ip), vehicle: saline 97 % of control

O=c1c2ccccc2[nH]c(=S)n1-c1cccc(C(F)(F)F)c1
inactive: [5] 100 % of control | [9] 97 % of control | [10] 96 % of control

COC(=O)/C(=C\c1ccc([N+](=O)[O-])s1)C(C)=O
inactive: dose: 6.25 mg/kg/injection, schedule: Q01DX005 (ip), vehicle: saline with Tween-80 92 % of control | dose: 12.5 mg/kg/injection, schedule: Q01DX005 (ip), vehicle: saline with Tween-80 94 % of control | dose: 12.5 mg/kg/injection, schedule: Q04DX003 (ip), vehicle: saline 94 % of control | [15] 96 % of control | dose: 50.0 mg/kg/injection, schedule: Q04DX003 (ip), vehicle: saline 86 % of control

Cc1cc(C)cc(NC(=O)c2ccccc2N)c1
inactive: [2] 96 % of control | [3] 91 % of control | [4] 93 % of control

c1ccc(C(c2cccc3ccccc23)N2CCCCC2)cc1 (stereo not drawn)
inactive: [11] 94 % of control | [2] 108 % of control | dose: 200.0 mg/kg/injection, schedule: Q01DX009 (ip), vehicle: saline with Tween-80 97 % of control | [3] 96 % of control | dose: 400.0 mg/kg/injection, schedule: Q01DX009 (ip), vehicle: saline with Tween-80 95 % of control | [4] 102 % of control

c1ccc(C2=NC3CCCCC3N=C2c2ccccc2)cc1 (stereo not drawn)
inactive: [2] 101 % of control | [3] 95 % of control | [4] 96 % of control

Cc1cc(I)c(C)s1
inactive: [2] 96 % of control | [3] 96 % of control | [4] 98 % of control

O=NN(C(=O)Nc1ccccc1)c1ccccc1
inactive: dose: 2.0 mg/kg/injection, schedule: Q01DX001 (ip), vehicle: carboxymethylcellulose (CMC) 106 % of control | dose: 4.0 mg/kg/injection, schedule: Q01DX001 (ip), vehicle: carboxymethylcellulose (CMC) 112 % of control | dose: 6.0 mg/kg/injection, schedule: Q01DX001 (ip), vehicle: carboxymethylcellulose (CMC) 112 % of control | dose: 8.0 mg/kg/injection, schedule: Q01DX001 (ip), vehicle: carboxymethylcellulose (CMC) 110 % of control | dose: 10.0 mg/kg/injection, schedule: Q01DX001 (ip), vehicle: carboxymethylcellulose (CMC) 104 % of control | dose: 12.5 mg/kg/injection, schedule: Q01DX001 (ip), vehicle: carboxymethylcellulose (CMC) 108 % of control | dose: 25.0 mg/kg/injection, schedule: Q01DX001 (ip), vehicle: carboxymethylcellulose (CMC) 100 % of control | dose: 50.0 mg/kg/injection, schedule: Q01DX001 (ip), vehicle: carboxymethylcellulose (CMC) 102 % of control | [1] 108 % of control
